Results taken from BigSolDB 2.1.

CCN(CC)CCNC(=O)c1c(C)[nH]c(/C=C2\C(=O)Nc3ccc(F)cc32)c1C.O=C(O)C[C@H](O)C(=O)O
Conditions | solubility (mole fraction)
in PEG-400, 298.2 K | 0.00634
in PEG-400, 303.2 K | 0.0076
in PEG-400, 308.2 K | 0.00996
in PEG-400, 313.2 K | 0.0129
in PEG-400, 318.2 K | 0.0167

solubility (mole fraction)
Conditions | in ethanol | in ethylene glycol | in isopropanol | in propylene glycol | in transcutol | in water
298.2 K | 0.00277 | 0.00104 | 0.00634 | 0.00179 | 0.00997 | 3.72e-06
303.2 K | 0.00321 | 0.00139 | 0.0076 | 0.00228 | 0.0117 | 4.74e-06
308.2 K | 0.00372 | 0.00186 | 0.00996 | 0.00303 | 0.0136 | 6.09e-06
313.2 K | 0.0043 | 0.00244 | 0.0129 | 0.00385 | 0.0163 | 8.46e-06
318.2 K | 0.00516 | 0.00313 | 0.0167 | 0.00483 | 0.0187 | 1.05e-05
